Reference: patent US20050197350A1, “Novel quinoline, tetrahydroquinazoline, and pyrimidine derivatives and methods of treatment related to the use thereof” (TAISHO PHARMACEUTICAL CO., LTD., priority 2003, published 2005)

target: MCH receptor (Homo sapiens, UniProt Q99705); test: High throughput functional screening FLIPR/FDSS6000 (intracellular Ca2+ evoked by MCH); format: cell-based; settings: FLIPR/FDSS, antagonist activity vs 50 nM MCH; class by percent of control at 10^−7 M or IC50; read-out: class
Summary of the method: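 For antagonist testing, compound-treated cells (30 min, 37 °C) were stimulated with 50 nM MCH and intracellular Ca2+ followed by Fluo4 fluorescence on FLIPR/FDSS6000. Receptor was a constitutively active, non-endogenous MCH receptor; dye loading 4 μM Fluo4-AM, 1 h, 37 °C.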

| IC50 | SMILES |
| --- | --- |
| < 50 nM | Cc1cnc(N[C@H]2CC[C@@H](NC(=O)c3cccnc3S(=O)(=O)c3ccc(F)cc3)CC2)nc1N(C)C [Example 3281, N-(cis-4-{[4-(dimethylamino)-5-methylpyrimidin-2-yl]amino}cyclohexyl)-2-[(4-fluorophenyl)sulfonyl]nicotinamide] |
| < 50 nM | Cc1cnc(N[C@H]2CC[C@@H](NC(=O)c3cccnc3S(=O)(=O)c3ccc(Cl)cc3)CC2)nc1N(C)C [Example 3282, 2-[(4-chlorophenyl)sulfonyl]-N-(cis-4-{[4-(dimethylamino)-5-methylpyrimidin-2-yl]amino}cyclohexyl)nicotinamide] |
| 50 to 200 nM | Cc1cnc(N[C@H]2CC[C@@H](NC(=O)c3cccnc3S(=O)(=O)c3cccc(Cl)c3)CC2)nc1N(C)C [Example 3283, 2-[(3-chlorophenyl)sulfonyl]-N-(cis-4-{[4-(dimethylamino)-5-methylpyrimidin-2-yl]amino}cyclohexyl)nicotinamide] |
| 50 to 200 nM | Cc1cnc(N[C@H]2CC[C@@H](NC(=O)c3cccnc3S(=O)(=O)c3ccccc3Cl)CC2)nc1N(C)C [Example 3284, 2-[(2-chlorophenyl)sulfonyl]-N-(cis-4-{[4-(dimethylamino)-5-methylpyrimidin-2-yl]amino}cyclohexyl)nicotinamide] |
| 50 to 200 nM | Cc1cnc(N[C@H]2CC[C@@H](NC(=O)c3cccnc3S(=O)(=O)c3cccc(Br)c3)CC2)nc1N(C)C [Example 3285, 2-[(3-bromophenyl)sulfonyl]-N-(cis-4-{[4-(dimethylamino)-5-methylpyrimidin-2-yl]amino}cyclohexyl)nicotinamide] |
| > 200 nM | COc1ccc(S(=O)(=O)c2ncccc2C(=O)N[C@H]2CC[C@@H](Nc3ncc(C)c(N(C)C)n3)CC2)cc1 [Example 3286, N-(cis-4-{[4-(dimethylamino)-5-methylpyrimidin-2-yl]amino}cyclohexyl)-2-[(4-methoxyphenyl)sulfonyl]-nicotinamide] |
| 50 to 200 nM | Cc1cnc(N[C@H]2CC[C@@H](NC(=O)c3cccnc3S(=O)(=O)c3cccc(C(F)(F)F)c3)CC2)nc1N(C)C [Example 3287, N-(cis-4-{[4-(dimethylamino)-5-methylpyrimidin-2-yl]amino}cyclohexyl)-2-{[3-(trifluoromethyl)phenyl]sulfonyl}-nicotinamide] |
| 50 to 200 nM | Cc1ccc(S(=O)(=O)c2ncccc2C(=O)N[C@H]2CC[C@@H](Nc3ncc(C)c(N(C)C)n3)CC2)cc1 [Example 3288, N-(cis-4-{[4-(dimethylamino)-5-methylpyrimidin-2-yl]amino}cyclohexyl)-2-[(4-methylphenyl)sulfonyl]nicotinamide] |
| 50 to 200 nM | Cc1cnc(N[C@H]2CC[C@@H](NC(=O)c3cccnc3S(=O)(=O)c3ccc(Br)cc3)CC2)nc1N(C)C [Example 3289, 2-[(4-bromophenyl)sulfonyl]-N-(cis-4-{[4-(dimethylamino)-5-methylpyrimidin-2-yl]amino}cyclohexyl)nicotinamide] |
| > 200 nM | Cc1cnc(N[C@H]2CC[C@@H](NC(=O)c3cccnc3S(=O)(=O)c3ccoc3C)CC2)nc1N(C)C [Example 3290, N-(cis-4-{[4-(dimethylamino)-5-methylpyrimidin-2-yl]amino}cyclohexyl)-2-[(2-methyl-3-furyl)sulfonyl]nicotinamide] |

More lines, now with the values behind:

| SMILES | IC50 |
| --- | --- |
| Cc1cc(N(C)C)nc(N[C@H]2CC[C@@H](NC(=O)N(C)C3(c4ccc(Cl)cc4)CC3)CC2)n1 [Example 3272, N-[1-(4-chlorophenyl)cyclopropyl]-N′-(cis-4-{[4-(dimethylamino)-6-methylpyrimidin-2-yl]amino}cyclohexyl)-N-methylurea] | > 200 nM |
| Cc1cnc(N[C@H]2CC[C@@H](C(=O)NC(C)(C)c3ccc(Cl)cc3)CC2)nc1N(C)C [Example 3273, cis-N-[1-(4-chlorophenyl)-1-methylethyl]-4-{[4-(dimethylamino)-5-methylpyrimidin-2-yl]amino}cyclohexanecarboxamide] | 50 to 200 nM |
| Cc1cc(N(C)C)nc(N[C@H]2CC[C@@H](C(=O)NC(C)(C)c3ccc(Cl)cc3)CC2)n1 [Example 3274, cis-N-[1-(4-chlorophenyl)-1-methylethyl]-4-{[4-(dimethylamino)-6-methylpyrimidin-2-yl]amino}cyclohexanecarboxamide] | > 200 nM |
| Cc1cc(N(C)C)nc(N[C@H]2CC[C@@H](C(=O)NC(C)(C)c3cc(C(F)(F)F)cc(C(F)(F)F)c3)CC2)n1 [Example 3275, cis-N-{1-[3,5-bis(trifluoromethyl)phenyl]-1-methylethyl}-4-{[4-(dimethylamino)-6-methylpyrimidin-2-yl]amino}cyclohexanecarboxamide] | > 200 nM |
| COc1nc(N[C@H]2CC[C@@H](NC(=O)c3ccc(Cl)cc3)CC2)ncc1C [Example 3276, 4-chloro-N-{cis-4-[(4-methoxy-5-methylpyrimidin-2-yl)amino]cyclohexyl}benzamide] | > 200 nM |
| COc1nc(N[C@H]2CC[C@@H](NC(=O)c3ccc(OC(F)(F)F)cc3)CC2)ncc1C [Example 3277, N-{cis-4-[(4-methoxy-5-methylpyrimidin-2-yl)amino]cyclohexyl}-4-(trifluoromethoxy)benzamide] | > 200 nM |
| COc1nc(N[C@H]2CC[C@@H](NC(=O)c3ccc(Cl)c(Cl)c3)CC2)ncc1C [Example 3278, 3,4-dichloro-N-{cis-4-[(4-methoxy-5-methylpyrimidin-2-yl)amino]cyclohexyl}benzamide] | 50 to 200 nM |
| COc1nc(N[C@H]2CC[C@@H](NC(=O)c3cc(Cl)cc(Cl)c3)CC2)ncc1C [Example 3279, 3,5-dichloro-N-{cis-4-[(4-methoxy-5-methylpyrimidin-2-yl)amino]cyclohexyl}benzamide] | > 200 nM |
| COc1nc(N[C@H]2CC[C@@H](NC(=O)c3cc(C(F)(F)F)cc(C(F)(F)F)c3)CC2)ncc1C [Example 3280, N-{cis-4-[(4-methoxy-5-methylpyrimidin-2yl)amino]cyclohexyl}-3,5-bis(trifluoromethyl)benzamide] | > 200 nM |
| Cc1cnc(N[C@H]2CC[C@@H](NC(=O)c3cccnc3S(=O)(=O)c3ccc(C(F)(F)F)cc3)CC2)nc1N(C)C [Example 3291, N-(cis-4-{[4-(dimethylamino)-5-methylpyrimidin-2-yl]amino}cyclohexyl)-2-{[4-(trifluoromethyl)phenyl]sulfonyl}-nicotinamide] | 50 to 200 nM |
| Cc1cnc(N[C@H]2CC[C@@H](C(=O)N[C@@H](C)c3ccc(Cl)cc3)CC2)nc1N(C)C [Example 3292, cis-N-[(1S)-1-(4-chlorophenyl)ethyl]-4-{[4-(dimethylamino)-5-methylpyrimidin-2-yl]amino}cyclohexanecarboxamide] | 50 to 200 nM |
| Cc1cnc(N[C@H]2CC[C@@H](C(=O)N[C@@H](C)c3cc(C(F)(F)F)cc(C(F)(F)F)c3)CC2)nc1N(C)C [Example 3293, cis-N-{(1S)-1-[3,5-bis(trifluoromethyl)phenyl]ethyl}-4-{[4-(dimethylamino)-5-methylpyrimidin-2-yl]amino}cyclohexanecarboxamide] | > 200 nM |
| Cc1cnc(N[C@H]2CC[C@@H](C(=O)N[C@H](C)c3ccccc3F)CC2)nc1N(C)C [Example 3294, cis-4-{[4-(dimethylamino)-5-methylpyrimidin-2-yl]aminol}-N-[(1R)-1-(2-fluorophenyl)ethyl]cyclohexanecarboxamide] | > 200 nM |
